Patent US5939385A, “Transglutaminase cross-linkable polypeptides and methods relating thereto” (ZymoGenetics, Inc., priority 1995, dated 1999)
No end group written: not given here.

Molecular target: T1, recombinant Factor XIII (rFXIIIa) (Homo sapiens, UniProt P00488)
T1 construct: made in house
T1 sequence (P00488 39-732 limits assumed): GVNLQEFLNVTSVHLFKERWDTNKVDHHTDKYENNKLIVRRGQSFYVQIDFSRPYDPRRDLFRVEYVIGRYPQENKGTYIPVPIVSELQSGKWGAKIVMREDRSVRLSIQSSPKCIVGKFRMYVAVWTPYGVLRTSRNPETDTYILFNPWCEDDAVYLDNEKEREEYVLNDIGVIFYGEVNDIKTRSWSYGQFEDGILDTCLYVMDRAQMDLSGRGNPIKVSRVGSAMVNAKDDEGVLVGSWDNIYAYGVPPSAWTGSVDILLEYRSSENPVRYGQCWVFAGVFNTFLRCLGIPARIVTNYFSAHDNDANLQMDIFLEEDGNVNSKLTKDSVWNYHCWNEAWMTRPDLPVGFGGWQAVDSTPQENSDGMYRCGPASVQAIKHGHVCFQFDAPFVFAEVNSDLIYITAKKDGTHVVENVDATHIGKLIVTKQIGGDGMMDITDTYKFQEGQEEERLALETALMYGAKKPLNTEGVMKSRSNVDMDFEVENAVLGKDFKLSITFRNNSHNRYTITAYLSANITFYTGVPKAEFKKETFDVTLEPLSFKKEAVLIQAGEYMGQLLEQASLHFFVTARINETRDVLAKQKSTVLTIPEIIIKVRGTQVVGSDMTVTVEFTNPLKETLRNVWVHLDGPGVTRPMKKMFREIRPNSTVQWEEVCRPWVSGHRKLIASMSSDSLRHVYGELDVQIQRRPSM
Experiment: Factor XIII cross-linking assay of test polypeptide substrates (HPLC area % vs time)
Assay type: biochemical
Details: for Monomer Consumption d[S]/dt (rate of substrate utilization) / Crosslinking d(2[S-])/dt (rate of monomer incorporation into dimers) / Hydrolysis d[-NH3]/dt (hydrolysis = deamidation): initial rate, 2mM substrate, 40 ug/ml rFXIIIa (preactivated), 2.0 U/ml Thrombin, 2.5 mM CaCl2, pH 7.4; for Monomer Consumption d[S]/dt (rate of substrate utilization): 125 mM NaCl, 50 mM TrisHCl; for Hydrolysis %: share of hydrolysis (deamidation) relative to hydrolysis plus crosslinking, same reaction conditions
Method: Polypeptides are screened for the ability to form transglutaminase-catalyzed cross-links using a cross-linking assay as described in more detail below. […] Each reaction receives 50 mM CaCl2 to a final concentration of 2.5 mM. A negative control for each test substrate is also prepared in which the reaction lacks a transglutaminase (e.g., Factor XIII). A positive control of the fibrinogen polypeptide (The-Ile-Gly-Glu-Gly-Gln-Gln-His-His-Leu-[…]-Gln-Ala-Gly-Asp-Val) is used for each set of reactions. The reactions are initiated by the addition of 40 μg/ml of transglutaminase (e.g., recombinant Factor XIII) followed by 0.1 unit of bovine thrombin (Enzyme Research Laboratories, Inc., South Bend, Ind.) to each solution, except the negative controls. The reactions are incubated in a 37° C. water bath. A time course of 10 μl samples are taken from each reaction at 0 minutes, 30 minutes, 60 minutes, 120 minutes and overnight. The reactions are stopped by boiling for one minute. After the reactions are terminated, each sample is diluted to 50 μl with 40 μl of TBS buffer (120 mM NaCl, 50 mM Tris (pH 7.6)) and the samples are prepared for HPLC analysis.
Each sample is chromatographed on a C-18 reverse phase HPLC column (Vydac, Hesperia, Calif. or the like) using a gradient of 0-40% B in 30 minutes (Solvent A: 0.05% trifluoroacetic acid (TFA) in water and Solvent B: 0.045% TFA in 80% acetonitrile, 20% water) on a Hewlett Packard 1090 Series II HPLC or the like. The signal is detected at a wavelength of 215 nm. The area % of each reaction product is collected and plotted versus time to determine the rates of polypeptide utilization dimer formation and multimer formation. A deamidation ratio is determined by dividing the deamidation rate by the dimerization rate.
The ability of the test polypeptides to form Factor XIII-induced multimers, and the susceptibility of the polypeptides to deamidation were assessed using the method described in detail below.
Approximately 0.5 mg of lyophilized polypeptide was dissolved in 50 mM Tris, 125 mM NaCl (pH 7.6) to give a final concentration of 2 mM by weight. […] Each test polypeptide solution received 50 mM CaCl2 to a final concentration of 2.5 mM. For each reaction, a negative control lacking Factor XIII was included. A positive control of the fibrinogen polypeptide Thr-Ile-Gly-Glu-Gly-Gln-Gln-His-His-Leu-Gly-Gly-Ala-Lys-Gln-Ala-Gly-Asp-Val was used for each set of reactions. The reactions were initiated by the addition of 40 μg/ml of recombinant Factor XIII followed by 0.1 unit of bovine thrombin (Enzyme Research Laboratories, Inc.) to each solution, except the negative controls. The reactions were incubated in a 37° C. water bath. Samples of 10 μl were taken from each reaction at 0 minutes, 30 minutes, 60 minutes, 120 minutes and overnight. The reactions were stopped by boiling for one minutes. The samples were diluted to 50 μl TBS buffer (120 mM NaCl, 50 mM Tris (pH 7.6)), and the samples were prepared for HPLC analysis.
Each reaction was chromatographed on a C-18 reverse phase HPLC column (Vydac, Hesperia, Calif., or the like) using a gradient of 0-40% B in 30 minutes (solvent A: 0.05% TFA in water and Solvent B: 0.045% TFA in 80% acetonitrile/20% water) on a Hewlett Packard 1090 Series II HPLC. The signal was detected at a wavelength of 215 nm. The area % of each reaction product was collected and plotted versus time to determine the rates of polypeptide utilization and dimer formation. A deamidation ratio was determined by dividing the deamidation rate by the dimerization rate. […] The abbreviations used in Table 1 are as follows: d[S]/dt indicates the rate of substrate utilization, d[S2 ]/dt indicates the rate of dimer formation and (-NH2 /S2) indicates the relative rates of deamidation to dimerization. The initial rates were normalized to that of the fibrinogen polypeptide Thr-Ile-Gly-Glu-Gly-Gln-Gln-His-His-Leu-Gly-Gly-Ala-Lys-Gln-Ala-Gly-Asp-Val. […]

Substance	Monomer Consumption d[S]/dt (rate of substrate utilization)	Crosslinking d(2[S-])/dt (rate of monomer incorporation into dimers)	Hydrolysis d[-NH3]/dt (hydrolysis = deamidation)	Hydrolysis %
EGQHHLGAKQAG [-- EGQ-- HHL-- GAKQAG--]	-6.0 uM (monomer)/min	3.0 uM (monomer)/min	5.4 uM (monomer)/min	64%
EGQHHLGGAKQA [-- EGQ-- HHLGGAKQA--]	-10.8 uM (monomer)/min	9.8 uM (monomer)/min	0.0 uM (monomer)/min	0%
GEGQHHLGGAKQAG [-- GEGQ-- HHLGGAKQAG--]	-13.1 uM (monomer)/min	11.2 uM (monomer)/min	0.4 uM (monomer)/min	3%
GQHHLGAKQ [-- GQ-- HHLG-- AKQ--]	-4.7 uM (monomer)/min	4.9 uM (monomer)/min	0.0 uM (monomer)/min	0%
GQHHLGAKQA [-- GQ-- HHL-- GAKQA--]	-8.4 uM (monomer)/min	8.4 uM (monomer)/min	-0.2 uM (monomer)/min	0%
GQHHLGGAKA [-- GQ-- HHLGGAK-- A--]	-2.4 uM (monomer)/min	1.8 uM (monomer)/min	0.8 uM (monomer)/min	31%
GQHHLGGAKQ [-- GQ-- HHLGGAKQ--, Gly-Gln-His-His-Leu-Gly-Gly-Ala-Lys-Gln]	-6.9 uM (monomer)/min	6.2 uM (monomer)/min	0.0 uM (monomer)/min	0%
GQHHLGGAKQG [GQ-- HHLGGAKQG]	-4.4 uM (monomer)/min	4.4 uM (monomer)/min	0.0 uM (monomer)/min	0%
GVGGQHHLGGAKQVP [GVGGQ-- HHLGGAKQVP]	-9.8 uM (monomer)/min	7.6 uM (monomer)/min	0.0 uM (monomer)/min	0%
GVGVPGQHHLGGAKQGVGVP [GVGVPGQ-- HHLGGAKQGVGVP]	-7.3 uM (monomer)/min	5.6 uM (monomer)/min	1.7 uM (monomer)/min	23%
IGEGQHHLGGAKQAGD [-- IGEGQ-- HHLGGAKQAGD--]	-12.5 uM (monomer)/min	14.1 uM (monomer)/min	-1.4 uM (monomer)/min	0%
LSQSKVG [LSQSKVG]	-5.2 uM (monomer)/min	6.8 uM (monomer)/min	1.2 uM (monomer)/min	15%
TIGEGQHHLGAKQAGDV [TIGEGQ-- HHL-- GAKQAGDV]	-8.4 uM (monomer)/min	3.6 uM (monomer)/min	5.4 uM (monomer)/min	60%
TIGEGQHHLGAKQAGDV [TIGEGQ-- HHLG-- AKQAGDV]	-7.0 uM (monomer)/min	4.0 uM (monomer)/min	3.0 uM (monomer)/min	43%
TIGEGQHHLGGAKAGDV [TIGEGQ-- HHLGGAK-- AGDV]	-10.0 uM (monomer)/min	8.8 uM (monomer)/min	1.4 uM (monomer)/min	14%

More lines, now with the values ahead:

Monomer Consumption d[S]/dt (rate of substrate utilization)	Crosslinking d(2[S-])/dt (rate of monomer incorporation into dimers)	Hydrolysis d[-NH3]/dt (hydrolysis = deamidation)	Hydrolysis %	Substance
-12.8 uM (monomer)/min	11.4 uM (monomer)/min	0.6 uM (monomer)/min	5%	TIGEGQHHLGGAKQAGDV [TIGEGQ-- HHLGGAKQAGDV]
-20.0 uM (monomer)/min	16.4 uM (monomer)/min	5.2 uM (monomer)/min	24%	TIGEGQQHHLGGAKQAGDV [TIGEGQQHHLGGAKQAGDV, Thr-Ile-Gly-Glu-Gly-Gln-Gln-His-His-Leu-Gly-Gly-Ala-Lys-Gln-Ala-Gly-Asp-Val, reference compound]
11.0 uM (monomer)/min	11.0 uM (monomer)/min	0.0 uM (monomer)/min	0%	VGGQHHLGGAKQVPG [VGGQ-- HHLGGAKQVPG]
-18.0 uM (monomer)/min	16.2 uM (monomer)/min	0.0 uM (monomer)/min	0%	VGQHHLGGAKVPG [VGQ-- HHLGGAKVPG]
-12.8 uM (monomer)/min	11.8 uM (monomer)/min	0.0 uM (monomer)/min	0%	VPGVGGQHHLGGAKQVPGVG [VPGVGGQ-- HHLGGAKQVPGVG]
-32.0 uM (monomer)/min	15.0 uM (monomer)/min	12.5 uM (monomer)/min	45%	VPGVGLSQSKVGVPGVG [VPGVGLSQSKVGVPGVG]
